Results: ChEMBL document CHEMBL1201862, “PubChem BioAssay data set” (2004)
Active and inactive are the calls of the source.

Legend:
Genome polyprotein = Genome polyprotein (dengue virus type 2, UniProt P29990); assay: Dengue-2 NS5 methyltransferase inhibitors, primary screen, biochemical, confirmation dose response (AID 588689); assay type: functional
[1] = target: Bifunctional protein GlmU (Mycobacterium tuberculosis, UniProt P9WMN3); assay: Inhibitors of Mycobacterial Glucosamine-1-phosphate acetyl transferase (GlmU). Secondary screen.; design: species or system Mycobacterium tuberculosis H37Rv
Sequence of Bifunctional protein GlmU (P9WMN3 whole entry): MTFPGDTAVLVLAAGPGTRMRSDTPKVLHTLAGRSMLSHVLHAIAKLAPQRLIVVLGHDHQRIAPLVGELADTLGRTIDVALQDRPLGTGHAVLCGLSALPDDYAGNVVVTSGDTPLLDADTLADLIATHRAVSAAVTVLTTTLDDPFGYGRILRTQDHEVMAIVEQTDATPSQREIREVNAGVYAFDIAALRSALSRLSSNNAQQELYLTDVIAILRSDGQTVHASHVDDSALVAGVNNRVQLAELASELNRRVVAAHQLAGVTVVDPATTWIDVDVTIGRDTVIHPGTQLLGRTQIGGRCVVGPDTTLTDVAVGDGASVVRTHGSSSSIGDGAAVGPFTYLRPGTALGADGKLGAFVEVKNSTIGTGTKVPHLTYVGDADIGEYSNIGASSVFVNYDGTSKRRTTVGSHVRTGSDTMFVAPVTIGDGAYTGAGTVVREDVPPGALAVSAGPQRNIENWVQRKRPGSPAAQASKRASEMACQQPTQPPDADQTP

Aminopeptidase N = target: T1, Aminopeptidase N (Plasmodium falciparum FcB1/Columbia, UniProt O96935); assay: P. falciparum M1AAP inhibitors, biochemical, fluorogenic H-Leu-NHMec substrate, 1536-well (AID 1445); design: species or system Plasmodium falciparum 3D7, 3D7
T1 sequence (O96935 whole entry): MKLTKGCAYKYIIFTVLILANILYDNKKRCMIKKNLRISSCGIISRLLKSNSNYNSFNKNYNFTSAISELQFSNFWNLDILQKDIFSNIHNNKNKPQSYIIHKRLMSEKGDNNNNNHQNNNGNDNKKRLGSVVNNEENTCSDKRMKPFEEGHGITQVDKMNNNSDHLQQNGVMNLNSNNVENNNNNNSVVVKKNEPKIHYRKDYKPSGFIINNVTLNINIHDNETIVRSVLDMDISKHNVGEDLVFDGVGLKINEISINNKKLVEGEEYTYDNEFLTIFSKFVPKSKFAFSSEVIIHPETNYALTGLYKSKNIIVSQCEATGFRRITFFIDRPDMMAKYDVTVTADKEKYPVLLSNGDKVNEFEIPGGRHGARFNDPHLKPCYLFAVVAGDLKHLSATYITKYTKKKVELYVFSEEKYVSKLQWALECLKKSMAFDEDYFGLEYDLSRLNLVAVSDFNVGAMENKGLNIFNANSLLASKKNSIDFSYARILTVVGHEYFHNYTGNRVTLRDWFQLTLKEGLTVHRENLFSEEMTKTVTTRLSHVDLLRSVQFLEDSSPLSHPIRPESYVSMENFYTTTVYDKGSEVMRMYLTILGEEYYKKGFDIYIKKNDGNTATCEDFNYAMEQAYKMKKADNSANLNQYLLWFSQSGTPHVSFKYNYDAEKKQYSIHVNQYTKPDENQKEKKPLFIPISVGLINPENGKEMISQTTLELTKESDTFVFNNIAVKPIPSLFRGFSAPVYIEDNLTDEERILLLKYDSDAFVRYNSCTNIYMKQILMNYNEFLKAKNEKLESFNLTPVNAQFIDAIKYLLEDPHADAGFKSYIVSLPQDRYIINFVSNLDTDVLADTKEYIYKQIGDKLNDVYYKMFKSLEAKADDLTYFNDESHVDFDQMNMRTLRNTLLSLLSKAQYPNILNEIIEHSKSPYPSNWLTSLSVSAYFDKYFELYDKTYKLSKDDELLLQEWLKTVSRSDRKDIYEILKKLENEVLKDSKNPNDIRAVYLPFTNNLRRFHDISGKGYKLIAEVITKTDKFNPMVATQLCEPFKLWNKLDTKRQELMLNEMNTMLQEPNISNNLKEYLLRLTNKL

[2] = target: T2, Replicative DNA helicase DnaB (Mycobacterium tuberculosis, UniProt P9WMR3); assay: DnaB intein splicing inhibitors, dose response, biochemical, cell-free fluorescence (AID 449749); assay type: functional
T2 sequence (P9WMR3 whole entry): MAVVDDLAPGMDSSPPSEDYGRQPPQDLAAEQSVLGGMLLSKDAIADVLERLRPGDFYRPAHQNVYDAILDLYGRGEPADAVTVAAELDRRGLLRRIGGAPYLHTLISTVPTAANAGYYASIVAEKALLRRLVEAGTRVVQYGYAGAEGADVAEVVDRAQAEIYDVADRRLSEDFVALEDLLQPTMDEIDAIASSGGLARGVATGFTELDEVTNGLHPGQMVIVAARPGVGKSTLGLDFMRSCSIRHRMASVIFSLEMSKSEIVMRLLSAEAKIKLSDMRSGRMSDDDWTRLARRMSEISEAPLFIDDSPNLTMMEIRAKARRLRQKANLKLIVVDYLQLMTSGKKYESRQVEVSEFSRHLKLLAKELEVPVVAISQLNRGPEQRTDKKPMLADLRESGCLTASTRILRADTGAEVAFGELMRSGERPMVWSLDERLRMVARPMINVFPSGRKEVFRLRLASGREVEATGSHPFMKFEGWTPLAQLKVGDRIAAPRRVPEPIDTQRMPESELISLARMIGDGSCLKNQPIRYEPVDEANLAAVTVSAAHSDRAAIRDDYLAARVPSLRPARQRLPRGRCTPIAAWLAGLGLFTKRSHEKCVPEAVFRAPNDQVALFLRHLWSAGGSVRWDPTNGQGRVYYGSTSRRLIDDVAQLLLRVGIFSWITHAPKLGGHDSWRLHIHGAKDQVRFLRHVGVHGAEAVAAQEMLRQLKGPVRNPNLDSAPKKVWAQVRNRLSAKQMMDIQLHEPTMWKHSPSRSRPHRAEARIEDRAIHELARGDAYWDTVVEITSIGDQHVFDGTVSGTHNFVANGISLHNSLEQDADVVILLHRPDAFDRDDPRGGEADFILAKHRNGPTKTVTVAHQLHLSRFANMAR

Protein RecA = target: T3, Protein RecA (Mycobacterium tuberculosis, UniProt P9WHJ3); assay: Fluorescence Cell-Free Homogeneous Dose Retest to Identify Inhibitors of RecA-Intein Splicing Activity. [Related pubchem assays (depositor defined):AID2097, AID2223, AID489010, AID492950]; assay type: functional
T3 sequence (P9WHJ3 whole entry): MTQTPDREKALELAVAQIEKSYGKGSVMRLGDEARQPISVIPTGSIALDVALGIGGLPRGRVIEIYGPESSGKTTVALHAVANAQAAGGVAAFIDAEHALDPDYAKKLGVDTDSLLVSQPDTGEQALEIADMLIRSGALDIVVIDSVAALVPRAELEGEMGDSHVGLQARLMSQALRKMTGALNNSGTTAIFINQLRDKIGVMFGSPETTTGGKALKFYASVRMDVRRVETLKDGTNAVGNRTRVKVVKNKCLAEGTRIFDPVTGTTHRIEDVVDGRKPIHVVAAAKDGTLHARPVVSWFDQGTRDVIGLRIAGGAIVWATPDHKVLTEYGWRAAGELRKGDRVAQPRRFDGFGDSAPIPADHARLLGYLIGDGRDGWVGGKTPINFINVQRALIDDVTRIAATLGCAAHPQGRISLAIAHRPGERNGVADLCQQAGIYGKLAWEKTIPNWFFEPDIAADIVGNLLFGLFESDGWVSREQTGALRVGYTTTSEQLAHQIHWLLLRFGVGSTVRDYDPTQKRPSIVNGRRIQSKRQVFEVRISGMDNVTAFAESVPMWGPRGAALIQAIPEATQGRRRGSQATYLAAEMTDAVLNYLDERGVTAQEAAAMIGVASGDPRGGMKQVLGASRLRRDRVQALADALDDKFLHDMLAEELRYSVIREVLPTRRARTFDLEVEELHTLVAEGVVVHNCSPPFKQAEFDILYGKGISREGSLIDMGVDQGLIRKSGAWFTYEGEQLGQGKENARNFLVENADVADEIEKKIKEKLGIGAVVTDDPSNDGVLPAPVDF

[3] = target: Tyrosine-protein phosphatase non-receptor type 7 (Homo sapiens, UniProt P35236); assay: inhibitors of human HePTP phosphatase, […], biochemical, absorbance, leukemia target (AID 521); assay type: functional
Sequence of Tyrosine-protein phosphatase non-receptor type 7 (P35236 whole entry, the tested form may be a part): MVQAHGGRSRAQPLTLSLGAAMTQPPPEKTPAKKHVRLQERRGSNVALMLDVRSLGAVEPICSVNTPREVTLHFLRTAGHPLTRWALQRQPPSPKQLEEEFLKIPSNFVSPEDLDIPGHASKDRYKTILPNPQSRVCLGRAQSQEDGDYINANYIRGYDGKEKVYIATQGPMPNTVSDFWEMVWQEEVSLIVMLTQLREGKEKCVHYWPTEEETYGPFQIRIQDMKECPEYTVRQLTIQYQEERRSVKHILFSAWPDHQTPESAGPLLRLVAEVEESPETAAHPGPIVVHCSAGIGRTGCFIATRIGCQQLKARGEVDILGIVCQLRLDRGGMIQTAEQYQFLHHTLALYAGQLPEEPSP

[4] = target: T4, RNA-binding protein pos-1 (Caenorhabditis elegans, UniProt G5EF15); assay: inhibitors of POS-1/mex-3 RNA binding, dose response, biochemical, fluorescence polarization (AID 1964);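 also: purified POS-1 fused to maltose binding protein made in E. coli; potency of compounds blocking POS-1 binding to fluorescent RNA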
T4 sequence (G5EF15 whole entry): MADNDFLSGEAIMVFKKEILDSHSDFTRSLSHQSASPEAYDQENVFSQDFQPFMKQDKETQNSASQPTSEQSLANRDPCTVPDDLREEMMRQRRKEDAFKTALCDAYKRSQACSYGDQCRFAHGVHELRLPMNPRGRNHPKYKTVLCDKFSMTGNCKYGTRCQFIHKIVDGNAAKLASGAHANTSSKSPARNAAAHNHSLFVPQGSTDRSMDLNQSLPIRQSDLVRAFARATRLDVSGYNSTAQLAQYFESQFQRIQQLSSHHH

[5] = target: T5, Zinc finger protein mex-5 (Caenorhabditis elegans, UniProt Q9XUB2); assay: MEX-5/TCR-2 RNA interaction inhibitors, dose response, biochemical, C. elegans, fluorescence polarization (AID 1960)
T5 sequence (Q9XUB2 whole entry): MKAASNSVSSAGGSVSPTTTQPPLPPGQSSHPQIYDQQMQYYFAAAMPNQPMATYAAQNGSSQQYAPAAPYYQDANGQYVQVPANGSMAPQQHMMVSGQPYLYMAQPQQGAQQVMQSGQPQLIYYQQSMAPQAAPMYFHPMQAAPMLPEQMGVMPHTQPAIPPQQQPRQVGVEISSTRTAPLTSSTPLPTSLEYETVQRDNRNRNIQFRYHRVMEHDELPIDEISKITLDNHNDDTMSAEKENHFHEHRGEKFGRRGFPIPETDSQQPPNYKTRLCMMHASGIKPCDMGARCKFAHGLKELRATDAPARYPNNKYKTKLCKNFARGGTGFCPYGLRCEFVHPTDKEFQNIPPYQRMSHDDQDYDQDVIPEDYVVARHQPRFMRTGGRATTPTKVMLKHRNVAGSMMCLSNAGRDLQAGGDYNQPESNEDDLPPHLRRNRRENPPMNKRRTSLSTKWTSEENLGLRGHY

NS3 = NS3 (Hepatitis C virus, UniProt A3EZJ3); assay: HCV NS3 helicase inhibitor potency, dose response, biochemical, fluorescence polarization, ChemBridge library (AID 743264)
Sequence of NS3 (A3EZJ3 whole entry): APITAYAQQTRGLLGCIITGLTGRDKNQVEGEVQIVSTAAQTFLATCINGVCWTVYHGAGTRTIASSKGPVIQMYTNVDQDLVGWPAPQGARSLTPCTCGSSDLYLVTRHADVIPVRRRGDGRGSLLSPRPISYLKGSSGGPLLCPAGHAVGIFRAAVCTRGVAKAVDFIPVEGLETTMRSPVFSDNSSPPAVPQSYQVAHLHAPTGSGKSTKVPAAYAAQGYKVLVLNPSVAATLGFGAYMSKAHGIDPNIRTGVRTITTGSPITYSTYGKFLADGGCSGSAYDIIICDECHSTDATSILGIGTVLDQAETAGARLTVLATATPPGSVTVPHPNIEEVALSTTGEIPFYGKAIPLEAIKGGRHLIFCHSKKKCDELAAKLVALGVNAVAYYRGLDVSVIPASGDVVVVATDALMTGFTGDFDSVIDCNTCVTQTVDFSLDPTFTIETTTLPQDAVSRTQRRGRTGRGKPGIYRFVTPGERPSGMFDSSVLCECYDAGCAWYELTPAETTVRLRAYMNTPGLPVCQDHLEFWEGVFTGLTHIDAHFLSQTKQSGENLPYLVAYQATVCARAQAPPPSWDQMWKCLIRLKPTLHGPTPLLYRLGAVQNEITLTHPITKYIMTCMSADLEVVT

Estrogen receptor = target: T6, Estrogen receptor (Homo sapiens, UniProt P03372);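 also: potency for inhibiting coactivator peptide recruitment to the receptor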
T6 sequence (P03372 whole entry): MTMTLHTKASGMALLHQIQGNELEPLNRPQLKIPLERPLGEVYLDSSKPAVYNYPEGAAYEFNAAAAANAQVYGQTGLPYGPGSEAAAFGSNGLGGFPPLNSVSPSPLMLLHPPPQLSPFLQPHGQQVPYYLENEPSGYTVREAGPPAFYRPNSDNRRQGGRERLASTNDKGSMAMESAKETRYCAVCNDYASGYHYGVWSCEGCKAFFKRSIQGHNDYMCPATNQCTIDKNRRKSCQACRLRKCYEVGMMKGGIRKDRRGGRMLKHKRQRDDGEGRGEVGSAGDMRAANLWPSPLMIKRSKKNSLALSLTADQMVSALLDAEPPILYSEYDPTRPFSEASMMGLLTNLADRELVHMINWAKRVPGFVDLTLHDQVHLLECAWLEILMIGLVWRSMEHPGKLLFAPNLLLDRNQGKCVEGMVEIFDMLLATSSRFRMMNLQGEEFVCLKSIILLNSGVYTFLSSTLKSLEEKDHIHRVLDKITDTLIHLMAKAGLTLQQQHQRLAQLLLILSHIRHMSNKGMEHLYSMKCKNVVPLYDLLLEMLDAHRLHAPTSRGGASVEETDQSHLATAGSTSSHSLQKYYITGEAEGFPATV

Protein Tat = Protein Tat (Human immunodeficiency virus type 1 group M subtype B (isolate HXB2)(HIV-1), UniProt P04608); assay type: functional;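 also: tat binding to TAR RNA read out by fluorescence polarization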
Sequence of Protein Tat (P04608 whole entry): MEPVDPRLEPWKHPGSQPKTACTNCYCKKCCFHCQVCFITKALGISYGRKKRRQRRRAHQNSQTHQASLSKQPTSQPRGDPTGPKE

Bcl-2-like protein 10 = target: T7, Bcl-2-like protein 10 (Homo sapiens, UniProt Q9HD36); assay: displacers of TR3 peptide from Bcl-B, primary screen, selectivity assay for Bfl-1 inhibitor project, biochemical, fluorescence polarization, FITC-TR3 peptide (AID 748);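 also: fluorescence polarization from a fluorescein-labelled TR3 peptide binding purified Bcl-B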
T7 sequence (Q9HD36 whole entry): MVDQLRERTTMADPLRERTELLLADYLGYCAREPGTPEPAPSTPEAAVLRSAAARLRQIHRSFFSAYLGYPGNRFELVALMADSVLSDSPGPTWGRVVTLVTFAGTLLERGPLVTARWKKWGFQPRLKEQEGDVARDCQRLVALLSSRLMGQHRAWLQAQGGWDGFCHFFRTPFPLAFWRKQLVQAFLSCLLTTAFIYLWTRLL

Sequence of Genome polyprotein (P29990 2492-3391 limits assumed): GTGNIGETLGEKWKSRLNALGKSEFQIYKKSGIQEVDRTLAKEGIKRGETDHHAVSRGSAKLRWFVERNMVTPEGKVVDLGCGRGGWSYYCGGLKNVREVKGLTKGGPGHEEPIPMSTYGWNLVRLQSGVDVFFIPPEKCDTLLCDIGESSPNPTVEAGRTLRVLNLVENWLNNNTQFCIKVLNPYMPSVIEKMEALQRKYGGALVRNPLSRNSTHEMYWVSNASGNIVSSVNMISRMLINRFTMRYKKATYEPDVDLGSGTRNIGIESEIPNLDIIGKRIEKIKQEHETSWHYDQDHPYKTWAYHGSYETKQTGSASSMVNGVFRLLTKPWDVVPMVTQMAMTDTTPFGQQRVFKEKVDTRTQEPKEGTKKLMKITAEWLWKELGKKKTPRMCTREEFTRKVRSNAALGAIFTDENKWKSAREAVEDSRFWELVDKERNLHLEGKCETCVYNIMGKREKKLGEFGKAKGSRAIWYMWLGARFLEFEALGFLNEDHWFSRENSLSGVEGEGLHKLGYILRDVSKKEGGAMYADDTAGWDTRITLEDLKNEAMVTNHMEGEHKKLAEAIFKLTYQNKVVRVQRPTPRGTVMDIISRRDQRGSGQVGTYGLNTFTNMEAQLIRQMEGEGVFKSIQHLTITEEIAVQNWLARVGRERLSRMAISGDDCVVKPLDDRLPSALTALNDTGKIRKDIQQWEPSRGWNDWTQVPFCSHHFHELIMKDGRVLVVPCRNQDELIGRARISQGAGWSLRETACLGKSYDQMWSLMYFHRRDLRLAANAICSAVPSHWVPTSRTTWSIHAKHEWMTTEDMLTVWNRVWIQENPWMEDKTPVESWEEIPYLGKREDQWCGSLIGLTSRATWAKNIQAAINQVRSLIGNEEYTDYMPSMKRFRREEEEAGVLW

SMILES: CC1=NN(c2ccc(Cl)c(C(=O)O)c2)C(=O)/C1=C\c1ccc(-c2ccc(C(=O)O)cc2)o1
- IC50 (Genome polyprotein): 19.4 µM (active)
- IC50 [1]: 94.1 µM (active)
- IC50 (Aminopeptidase N): 2.41 µM (active)
- AC50 [2]: 0.484 µM (active)
- EC50 (Protein RecA): 0.4 µM (active)

SMILES: Cc1cc(C(=O)O)ccc1-n1c(C)ccc1C
- IC50 [3]: 0.76 µM (active)
- EC50 [4]: 5.94 µM (active)
- EC50 [5]: 8.59 µM (active)
- IC50 (NS3): 6.25 µM (inactive)
- IC50 (Estrogen receptor): 7.53 µM (active)

SMILES: O=C1c2ccccc2CC1Sc1nnc(-c2ccccn2)o1 (configuration not stated)
- IC50 (Protein Tat): > 100 µM (active)
- IC50 (Bcl-2-like protein 10): > 100 µM (inactive)
